“Also recorded” adds a separate entry of the source. Starred links: 1 amine or outer side, 2 acyl side, 3 side chain; linkers in the order of their positions; H or OH if unused. Positions of bridges follow the written chain, without caps; N, C: chain ends. Non-standard residues stand in square brackets, D forms with d. Residues, ends and D or L forms follow the SMILES beside them. *: point of attachment. Orn(4R-OH,5R-OCH2CH2NMe3+) = C[N+](C)(C)CCO[C@@H](N[*:3])[C@H](O)C[C@H](N[*:1])C(=O)[*:2]; pTerphenylCO(4''-OnC5H11) = CCCCCOc1ccc(-c2ccc(-c3ccc(C(=O)*)cc3)cc2)cc1; hTyr(3S-OH,4S-OH) = N[C@H](C(=O)O)[C@H](O)[C@@H](O)c1ccc(O)cc1; Pro(3S-OH,4S-Me) = C[C@H]1CN[C@H](C(=O)O)[C@H]1O; Hyp = O=C(O)[C@@H]1C[C@@H](O)CN1
Columns and labels:
[1] = Rat pharmacokinetics, i.v. bolus; assay type: in vivo, Sprague-Dawley rats
Protocol: In one of three rat studies reported here, a single 5-, 15-, or 45-mg/kg dose of CD101 was administered by slow i.v. bolus (∼3 min) to Sprague-Dawley rats (n = 3 to 5/dose). Blood samples (via jugular vein catheter [JVC]) were drawn for plasma processing at 0.083, 0.25, 0.5, 1, 2, 4, 8, 24, 48, 120, 168, and 240 h after dosing. In the second rat study, conducted to assess tissue distribution, a single 5-mg/kg dose of CD101 was administered by slow i.v. bolus (∼3 min) to male Sprague-Dawley rats (n = 3 animals/time point). Blood samples (via cardiac puncture) were collected for plasma processing predose and at 0.083, 0.5, 1, 2, 4, 8, 24, 48, 72, 96, and 120 h postdose. In parallel with blood collection, animals were euthanized, and tissues (liver, lungs, kidneys, heart, spleen, and brain) were excised and frozen prior to analysis. In the third rat study, conducted to assess excretion, a single 5-mg/kg dose of CD101 was administered by slow i.v. bolus (∼3 min) to bile duct-cannulated male Sprague-Dawley rats (n = 3). Bile samples were collected from each animal into prelabeled bile collection tubes predose and at 0 to 8, 8 to 24, 24 to 48, 48 to 72, 72 to 96, and 96 to 120 h postdose; urine samples were collected from each animal at the same time points pre- and postdose.
(§1) For each of the pharmacokinetic studies, whole-blood samples (K3EDTA as anticoagulant) were collected and centrifuged within 30 min of collection. The resulting plasma was harvested and stored at −20°C until analysis. Tissue samples were homogenized by a bead-based homogenizer following the addition of deionized water to excised tissue in a 2:1 (vol/wt) ratio and stored at −20°C until analysis. Prior to analysis, plasma or homogenized tissue samples were quenched with acetonitrile (3:1, acetonitrile-plasma or tissue ratio) containing an appropriate internal standard (isotopically labeled d9-CD101 [mouse and rat] or a structural analog [dog, monkey, and chimpanzee]). Plasma and tissue homogenate concentrations (quantified against calibration standards processed the same way) were determined by reverse-phase, gradient liquid chromatography with tandem mass spectrometric detection (LC-MS/MS) using an AB-SCIEX API 3200Q/4000 mass spectrometry system. Calibration standard ranges were the following: 0.400 (lower limit of quantitation, [LLOQ]) to 200 μg/ml (CD101, mouse), 0.040 (LLOQ) to 10 μg/ml (anidulafungin, mouse), 0.002 (LLOQ) to 10 μg/ml (CD101, rat), 0.005 (LLOQ) to 10 μg/ml (anidulafungin, rat), 0.050 (LLOQ) to 10 μg/ml (CD101, dog), 0.020 (LLOQ) to 10 μg/ml (anidulafungin, dog), 0.010 (LLOQ) to 10 μg/ml (CD101, monkey), 0.001 (LLOQ) to 10 μg/ml (anidulafungin, monkey), 0.015 (LLOQ) to 10 μg/ml (CD101, chimpanzee), and 0.015 (LLOQ) to 10 μg/ml (anidulafungin, chimpanzee). When necessary, dilutions with blank matrix were made for samples that quantified above the upper limit of quantitation. The methods used in the analysis were qualified as fit for purpose: calibration standards were matrix matched with the exception that human plasma calibration standards were used to analyze chimpanzee plasma samples due to the rarity of blank chimpanzee plasma, and, for each analytical batch, triplicate calibration standards were included at the beginning, approximately in the middle, and at the end of the batch. Following analysis, quantitation was carried out by a calibration curve comprising the analyte/internal standard area ratio versus concentration. Analytical batch acceptance followed the general guidance that triplicate standards/quality controls be within ±20% for accuracy (percentage of nominal concentration) and ≤20% for precision (percent coefficient of variation).
(§2) Pharmacokinetic parameters were calculated by noncompartmental analysis using Phoenix WinNonlin (version 6.3; Pharsight, Mountain View, CA) from either individual or mean (mouse) concentration-time profiles. An unpaired t test was used to compare mean exposures from male and female rats.

[2] = Dog pharmacokinetics, i.v. bolus; settings: in vivo, iv, male beagle dogs, single 1.4 mg/kg slow i.v. bolus, plasma, LC-MS/MS, noncompartmental
Protocol: as §1, §2

[3] = Cynomolgus monkey pharmacokinetics, i.v. bolus; design: species or system cynomolgus monkeys; settings: in vivo, iv, male cynomolgus monkeys, single 2.13 mg/kg slow i.v. bolus, plasma, LC-MS/MS, noncompartmental
Protocol: A single dose of 2.13 mg/kg CD101 or 2.8 mg/kg anidulafungin was administered by slow i.v. bolus (∼10 min) to cynomolgus monkeys (n = 3/group), and blood samples (via peripheral vein) were drawn for plasma processing at 0.167, 0.5, 1, 3, 8, 12, 24, 48, and 72 h postdose.
as §1, §2

[4] = rat, in vivo, iv, 5 mg/kg, female Sprague-Dawley rats, single 5 mg/kg slow i.v. bolus, plasma, LC-MS/MS, noncompartmental, n = 3 to 5/dose
[5] = rat, in vivo, iv, 5 mg/kg, male Sprague-Dawley rats, single 5 mg/kg slow i.v. bolus, plasma, LC-MS/MS, noncompartmental, n = 3 to 5/dose
[6] = rat, in vivo, iv, 15 mg/kg, female Sprague-Dawley rats, single 15 mg/kg slow i.v. bolus, plasma, LC-MS/MS, noncompartmental, n = 3 to 5/dose
[7] = rat, in vivo, iv, 15 mg/kg, male Sprague-Dawley rats, single 15 mg/kg slow i.v. bolus, plasma, LC-MS/MS, noncompartmental, n = 3 to 5/dose
[8] = rat, in vivo, iv, 45 mg/kg, female Sprague-Dawley rats, single 45 mg/kg slow i.v. bolus, plasma, LC-MS/MS, noncompartmental, n = 3 to 5/dose
[9] = rat, in vivo, iv, 45 mg/kg, male Sprague-Dawley rats, single 45 mg/kg slow i.v. bolus, plasma, LC-MS/MS, noncompartmental, n = 3 to 5/dose

For CCCCCOc1ccc(-c2ccc(-c3ccc(C(=O)N[C@H]4C[C@@H](O)[C@@H](OCC[N+](C)(C)C)NC(=O)[C@@H]5[C@@H](O)[C@@H](C)CN5C(=O)[C@H]([C@@H](C)O)NC(=O)[C@H]([C@H](O)[C@@H](O)c5ccc(O)cc5)NC(=O)[C@@H]5C[C@@H](O)CN5C(=O)[C@H]([C@@H](C)O)NC4=O)cc3)cc2)cc1 [CD101] ({pTerphenylCO(4''-OnC5H11)}-[Orn(4R-OH,5R-OCH2CH2NMe3+)]T[Hyp][hTyr(3S-OH,4S-OH)]T[Pro(3S-OH,4S-Me)]; lactam 1-C), the Tmax ([1]; female Sprague-Dawley rats, single 5 mg/kg slow i.v. bolus, plasma, LC-MS/MS, noncompartmental, n = 3 to 5/dose) was 4.98 min, the Tmax ([1]; male Sprague-Dawley rats, single 15 mg/kg slow i.v. bolus, plasma, LC-MS/MS, noncompartmental, n = 3 to 5/dose) was 4.98 min and the Tmax ([1]; male Sprague-Dawley rats, single 45 mg/kg slow i.v. bolus, plasma, LC-MS/MS, noncompartmental, n = 3 to 5/dose) was 4.98 min. The AUC(0-inf) [1, 4] was 188 µg·h/mL, the AUC(0-t) [1, 4] was 185 µg·h/mL and the Cmax [1, 4] was 10500 ng/mL. It also gave a half-life [1, 4] of 35.7 h, a clearance ([1]; rat, in vivo, iv, 5 mg/kg, female Sprague-Dawley rats, single 5 mg/kg slow i.v. bolus, plasma, LC-MS/MS, noncompartmental, n = 3 to 5/dose, read-out: CL (clearance)) of 0.444 mL/min/kg and a Vd ([1]; rat, in vivo, iv, 5 mg/kg, female Sprague-Dawley rats, single 5 mg/kg slow i.v. bolus, plasma, LC-MS/MS, noncompartmental, n = 3 to 5/dose, read-out: Vss (volume of distribution at steady state)) of 1.21 L/kg. The AUC(0-inf) [1, 5] was 183 µg·h/mL, the AUC(0-t) [1, 5] was 180 µg·h/mL and the Cmax [1, 5] was 12000 ng/mL. The half-life [1, 5] was 34.9 h, the clearance ([1]; rat, in vivo, iv, 5 mg/kg, male Sprague-Dawley rats, single 5 mg/kg slow i.v. bolus, plasma, LC-MS/MS, noncompartmental, n = 3 to 5/dose, read-out: CL (clearance)) was 0.456 mL/min/kg and the Vd ([1]; rat, in vivo, iv, 5 mg/kg, male Sprague-Dawley rats, single 5 mg/kg slow i.v. bolus, plasma, LC-MS/MS, noncompartmental, n = 3 to 5/dose, read-out: Vss (volume of distribution at steady state)) was 1.16 L/kg. It also gave an AUC(0-inf) [1, 6] of 441 µg·h/mL, an AUC(0-t) [1, 6] of 435 µg·h/mL and a Cmax [1, 6] of 27600 ng/mL. It also gave a half-life [1, 6] of 34.9 h, a clearance ([1]; rat, in vivo, iv, 15 mg/kg, female Sprague-Dawley rats, single 15 mg/kg slow i.v. bolus, plasma, LC-MS/MS, noncompartmental, n = 3 to 5/dose, read-out: CL (clearance)) of 0.567 mL/min/kg and a Vd ([1]; rat, in vivo, iv, 15 mg/kg, female Sprague-Dawley rats, single 15 mg/kg slow i.v. bolus, plasma, LC-MS/MS, noncompartmental, n = 3 to 5/dose, read-out: Vss (volume of distribution at steady state)) of 1.45 L/kg. The AUC(0-inf) [1, 7] was 580 µg·h/mL, the AUC(0-t) [1, 7] was 562 µg·h/mL and the Cmax [1, 7] was 35900 ng/mL. The half-life [1, 7] was 42.7 h, the clearance ([1]; rat, in vivo, iv, 15 mg/kg, male Sprague-Dawley rats, single 15 mg/kg slow i.v. bolus, plasma, LC-MS/MS, noncompartmental, n = 3 to 5/dose, read-out: CL (clearance)) was 0.431 mL/min/kg and the Vd ([1]; rat, in vivo, iv, 15 mg/kg, male Sprague-Dawley rats, single 15 mg/kg slow i.v. bolus, plasma, LC-MS/MS, noncompartmental, n = 3 to 5/dose, read-out: Vss (volume of distribution at steady state)) was 1.42 L/kg. The AUC(0-inf) [1, 8] was 1510 µg·h/mL, the AUC(0-t) [1, 8] was 1490 µg·h/mL and the Cmax [1, 8] was 115000 ng/mL. It also gave a half-life [1, 8] of 39.9 h, a clearance ([1]; rat, in vivo, iv, 45 mg/kg, female Sprague-Dawley rats, single 45 mg/kg slow i.v. bolus, plasma, LC-MS/MS, noncompartmental, n = 3 to 5/dose, read-out: CL (clearance)) of 0.496 mL/min/kg and a Vd ([1]; rat, in vivo, iv, 45 mg/kg, female Sprague-Dawley rats, single 45 mg/kg slow i.v. bolus, plasma, LC-MS/MS, noncompartmental, n = 3 to 5/dose, read-out: Vss (volume of distribution at steady state)) of 1.55 L/kg. For the same molecule, the AUC(0-inf) [1, 9] was 1660 µg·h/mL, the AUC(0-t) [1, 9] was 1610 µg·h/mL and the Cmax [1, 9] was 164000 ng/mL. The half-life [1, 9] was 44.5 h, the clearance ([1]; rat, in vivo, iv, 45 mg/kg, male Sprague-Dawley rats, single 45 mg/kg slow i.v. bolus, plasma, LC-MS/MS, noncompartmental, n = 3 to 5/dose, read-out: CL (clearance)) was 0.452 mL/min/kg and the Vd ([1]; rat, in vivo, iv, 45 mg/kg, male Sprague-Dawley rats, single 45 mg/kg slow i.v. bolus, plasma, LC-MS/MS, noncompartmental, n = 3 to 5/dose, read-out: Vss (volume of distribution at steady state)) was 1.57 L/kg. The Vd ([1]; rat, in vivo, iv, rat, intravenous, one value for the species as given in the abstract (doses 5, 15, 45 mg/kg, both sexes in Table 1), read-out: Vss) was 1.39 L/kg, the clearance ([1]; rat, in vivo, iv, rat, intravenous, one value for the species as given in the abstract (doses 5, 15, 45 mg/kg, both sexes in Table 1), read-out: clearance) was 0.47 mL/min/kg and the Tmax ([1]; rat, in vivo, iv, female Sprague-Dawley rats, single 15 mg/kg slow i.v. bolus, plasma, LC-MS/MS, noncompartmental, n = 3 to 5/dose, read-out: Tmax) was 4.98 min. It also gave a Tmax ([1]; rat, in vivo, iv, female Sprague-Dawley rats, single 45 mg/kg slow i.v. bolus, plasma, LC-MS/MS, noncompartmental, n = 3 to 5/dose, read-out: Tmax) of 4.98 min, a Tmax ([1]; rat, in vivo, iv, male Sprague-Dawley rats, single 5 mg/kg slow i.v. bolus, plasma, LC-MS/MS, noncompartmental, n = 3 to 5/dose, read-out: Tmax) of 4.98 min and a half-life ([1]; rat, in vivo, iv, one value for the species as given in the abstract (doses 5, 15, 45 mg/kg, both sexes in Table 1)) of 39 h. The “PK differences between males and females” value ([1]; rats (Table 1) or monkeys (data not shown)) was “no sex differences; also recorded: No PK differences between males and females”, the AUC(0-t) ([2]; n = 4) was 48.7 µg·h/mL and the Cmax ([2]; n = 4) was 1570 ng/mL. It also gave a Tmax ([2]; n = 4) of 4.98 min, a clearance ([2]; n = 4, read-out: CL (clearance)) of 0.301 mL/min/kg and an AUC(0-t) ([3]; n = 3) of 92.1 µg·h/mL. For the same molecule, the Cmax ([3]; n = 3) was 9070 ng/mL, the Tmax ([3]; n = 3) was 0.167 h and the half-life ([3]; n = 3) was 39.7 h. The clearance ([3]; n = 3, read-out: CL (clearance)) was 0.405 mL/min/kg and the Vd ([3]; n = 3, read-out: Vss (volume of distribution at steady state)) was 0.597 L/kg.

Reference: PMC5365648, “Pharmacokinetics of the Novel Echinocandin CD101 in Multiple Animal Species” (Antimicrobial Agents and Chemotherapy, 2017)
